Measured values: patent US20130089570A1, “ORAL VACCINE CO[…] ANTIGEN AND A TOLL-LIKE RECEPTOR AGONIST” (Glaxo Smith Kline Biologicals S.A., priority 2010, published 2013)
Read-outs that look alike come from different tables or passages of the source. Marks after values point to notes of the source that are not given here.

Tested on: A/Solomon Island virus (A/SI/3/2006)
Type: in vivo, BALB/c mice
Settings: for IgA concentration in mucosal samples GeoMean, BAL / IgA concentration in mucosal samples GeoMean, Feces / IgA concentration in mucosal samples GeoMean, Nasal Wash / IgA concentration in mucosal samples GeoMean, Saliva / IgA concentration in mucosal samples GeoMean, Vaginal Wash: days 0 and 14, two weeks after second immunization
[1] = Table 1 study, dose of Ag 14 μg
[2] = Table 2 study, A/SI/3/2006 7.5 μg, adjuvant 1 μg

Row | Compound | IgA concentration in mucosal samples GeoMean, BAL (Table 1 study, dose of Ag 7 μg) | IgA concentration in mucosal samples GeoMean, Feces (Table 1 study, dose of Ag 7 μg) | IgA concentration in mucosal samples GeoMean, Nasal Wash (Table 1 study, dose of Ag 7 μg) | IgA concentration in mucosal samples GeoMean, Saliva (Table 1 study, dose of Ag 7 μg) | IgA concentration in mucosal samples GeoMean, Vaginal Wash (Table 1 study, dose of Ag 7 μg) | IgA concentration in mucosal samples GeoMean, BAL [1] | IgA concentration in mucosal samples GeoMean, Feces [1] | IgA concentration in mucosal samples GeoMean, Nasal Wash [1] | IgA concentration in mucosal samples GeoMean, Saliva [1] | IgA concentration in mucosal samples GeoMean, Vaginal Wash [1] | IgA concentration in mucosal samples GeoMean, BAL [2] | IgA concentration in mucosal samples GeoMean, Feces [2] | IgA concentration in mucosal samples GeoMean, Nasal Wash [2] | IgA concentration in mucosal samples GeoMean, Saliva [2] | IgA concentration in mucosal samples GeoMean, Vaginal Wash [2] | IgA BAL levels compared to IM immunization (Table 2 study, Kruskal Wallis and Dunn's multiple comparison test) | IgA response in vaginal wash by adjuvantation (Table 2 study, vaginal wash)
1 | CCCCCCCCCCC[C@H](CC(=O)N[C@H]1[C@H](OC[C@H](NC(=O)C[C@@H](CCCCCCCCCCC)OC(=O)CCCCCCCCC)C(=O)O)O[C@H](CO)[C@@H](OP(=O)(O)O)[C@@H]1OC(=O)C[C@@H](CCCCCCCCCCC)OC(=O)CCCCCCCCC)OC(=O)CCCCCCCCC [CRX527] | 7.43*** ng/mL | 48.40*** ng/mL | 11.88* ng/mL | 7.53 ng/mL | 81.01*** ng/mL | 3.67 ng/mL | 75.71*** ng/mL | 8.22 ng/mL | 5.13 ng/mL | 120.80*** ng/mL | 3.47 ng/mL | 8.68 ng/mL | 3.50 ng/mL | 3.22 ng/mL | 7.05 ng/mL | – | –
2 | Flagellin | – | – | – | – | – | – | – | – | – | – | 4.04 ng/mL | 14.56 ng/mL | 4.00 ng/mL | 2.69 ng/mL | 9.93** ng/mL | significantly higher | highly increased the IgA response
